Values after ≈ are worked out from the molar mass of the structure shown. Active and inactive are the calls of the source. No cut-off for these calls is given here.
How the values were obtained:
PC-3 = assay: Cytotoxicity against human PC3 cells at 30 ug/mL after 48 hrs by SRB assay; format: functional, cell-based
UACC-62 = assay: Cytotoxicity against human UACC62 cells after 48 hrs by SRB assay; format: functional, cell-based; details: UACC-62, 48 h
SK-OV-3 = assay: Cytotoxicity against human SKOV3 cells at 30 ug/mL after 48 hrs by SRB assay; format: functional, cell-based
A549 = assay: Cytotoxicity against human A549 cells at 30 ug/mL after 48 hrs by SRB assay; format: functional, cell-based
HCT-15 = assay: Cytotoxicity against human HCT15 cells at 30 ug/mL after 48 hrs by SRB assay; format: functional, cell-based
SW-620 = assay: Cytotoxicity against human SW620 cells after 48 hrs by SRB assay; format: functional, cell-based; details: SW-620, 48 h
[1] = tested on: Radical scavenging activity; assay: Antioxidant activity assessed as DPPH radical scavenging activity at 100 ug/mL; format: functional

| Compound | Activity (PC-3) | IC50 (UACC-62) | Activity (SK-OV-3) | Activity (A549) | Activity (HCT-15) | IC50 (SW-620) | Activity [1] |
| --- | --- | --- | --- | --- | --- | --- | --- |
| COC(=O)[C@@]12Oc3ccc(O)cc3[C@@H]1C(=O)C(O)=C2c1ccc(O)c(O)c1 [SUILLUSIN] | Active | 12 µg/mL (≈ 32.4 µM) | Active | Active | Active | 20 µg/mL (≈ 54 µM) | 30% |
| VITAMIN E | – | – | – | – | – | – | 73% |
